From PubChem BioAssay (NCI)
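Abbreviation: GI50, concentration required for 50% inhibition of growth. TGI is the concentration that stops growth completely.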

Experiments:
Experiment in all cases: NCI anticancer screen, dose series, 384-well format
SK-MEL-5 melanoma = system: SK-MEL-5 melanoma
UACC-257 melanoma = system: UACC-257 melanoma
RPMI-8226 leukemia = system: RPMI-8226 leukemia
SNB-19 CNS = system: SNB-19 CNS
NCI-H23 lung = system: NCI-H23 lung
SW-620 colon = system: SW-620 colon
NCI-H226 lung = system: NCI-H226 lung
HS 578T breast = system: HS 578T breast
786-0 renal = system: 786-0 renal
EKVX NSCLC = system: EKVX NSCLC
OVCAR-3 ovarian = system: OVCAR-3 ovarian
HOP-92 NSCLC = system: HOP-92 NSCLC
NCI-H522 lung = system: NCI-H522 lung
TK-10 renal = system: TK-10 renal
BT-549 breast = system: BT-549 breast
NCI/ADR-RES ovarian = system: NCI/ADR-RES ovarian
SK-OV-3 ovarian = system: SK-OV-3 ovarian
T-47D breast = system: T-47D breast
K-562 leukemia = system: K-562 leukemia
COLO 205 colon = system: COLO 205 colon
RXF 393 renal = system: RXF 393 renal
IGROV1 ovarian = system: IGROV1 ovarian
UO-31 renal = system: UO-31 renal
OVCAR-8 ovarian = system: OVCAR-8 ovarian
MALME-3M melanoma = system: MALME-3M melanoma
A549 NSCLC = system: A549 NSCLC
MDA-MB-435 melanoma = system: MDA-MB-435 melanoma
SNB-75 CNS = system: SNB-75 CNS
CAKI-1 renal = system: CAKI-1 renal
NCI-H322M lung = system: NCI-H322M lung
OVCAR-5 ovarian = system: OVCAR-5 ovarian
OVCAR-4 ovarian = system: OVCAR-4 ovarian
HCT-15 colon = system: HCT-15 colon
MDA-MB-231 breast = system: MDA-MB-231 breast
HCT-116 colon = system: HCT-116 colon
KM12 colon = system: KM12 colon
SK-MEL-28 melanoma = system: SK-MEL-28 melanoma
A498 renal = system: A498 renal
PC-3 prostate = system: PC-3 prostate
LOX IMVI melanoma = system: LOX IMVI melanoma
NCI-H460 NSCLC = system: NCI-H460 NSCLC
HCC-2998 colon = system: HCC-2998 colon
SF-295 CNS = system: SF-295 CNS
SR leukemia = system: SR leukemia
HL-60(TB) leukemia = system: HL-60(TB) leukemia
MOLT-4 leukemia = system: MOLT-4 leukemia
SF-539 CNS = system: SF-539 CNS
MDA-MB-468 breast = system: MDA-MB-468 breast
DU-145 prostate = system: DU-145 prostate
UACC-62 melanoma = system: UACC-62 melanoma
SF-268 CNS = system: SF-268 CNS
ACHN renal = system: ACHN renal
CCRF-CEM leukemia = system: CCRF-CEM leukemia
HT29 colon = system: HT29 colon
M14 melanoma = system: M14 melanoma
SN12C renal = system: SN12C renal
MCF7 breast = system: MCF7 breast
HOP-62 NSCLC = system: HOP-62 NSCLC

## CCc1c2c(nc3ccc(O)cc13)-c1cc3c(c(=O)n1C2)COC(=O)[C@]3(O)CC
SK-MEL-5 melanoma
  TGI: 0.0169 µM
UACC-257 melanoma
  GI50: 0.0118 µM
  TGI: 0.285 µM
RPMI-8226 leukemia
  TGI: 0.0616 µM
SNB-19 CNS
  TGI: 0.0163 µM
NCI-H23 lung
  TGI: 0.0133 µM
SW-620 colon
  TGI: 0.239 µM
NCI-H226 lung
  TGI: 0.135 µM
HS 578T breast
  GI50: 0.14 µM
  TGI: 1.93 µM
786-0 renal
  TGI: 0.0125 µM
EKVX NSCLC
  GI50: 0.0897 µM
  TGI: 2.63 µM
OVCAR-3 ovarian
  TGI: 0.0364 µM
HOP-92 NSCLC
  TGI: 0.0644 µM
NCI-H522 lung
  TGI: 0.0316 µM
TK-10 renal
  GI50: 0.0351 µM
  TGI: 0.919 µM
BT-549 breast
  TGI: 0.0264 µM
NCI/ADR-RES ovarian
  TGI: 0.0303 µM
SK-OV-3 ovarian
  TGI: 0.0175 µM
T-47D breast
  TGI: 0.0155 µM
K-562 leukemia
  TGI: 0.292 µM
COLO 205 colon
  TGI: 1.06 µM
RXF 393 renal
  TGI: 0.0264 µM
IGROV1 ovarian
  GI50: 0.0247 µM
  TGI: 1.05 µM
UO-31 renal
  TGI: 0.0495 µM
OVCAR-8 ovarian
  TGI: 0.0478 µM
MALME-3M melanoma
  GI50: 0.0131 µM
  TGI: 0.297 µM
A549 NSCLC
  GI50: 0.0344 µM
  TGI: 1.06 µM
MDA-MB-435 melanoma
  GI50: 0.0331 µM
  TGI: 0.266 µM
SNB-75 CNS
  TGI: 0.0141 µM
CAKI-1 renal
  TGI: 0.0926 µM
NCI-H322M lung
  GI50: 0.0223 µM
  TGI: 0.12 µM
OVCAR-5 ovarian
  GI50: 0.0398 µM
  TGI: 0.249 µM
OVCAR-4 ovarian
  GI50: 0.0478 µM
  TGI: 0.224 µM
HCT-15 colon
  TGI: 0.137 µM
MDA-MB-231 breast
  GI50: 0.128 µM
  TGI: 3.8 µM
HCT-116 colon
  TGI: 0.114 µM
KM12 colon
  GI50: 0.0205 µM
  TGI: 0.153 µM
SK-MEL-28 melanoma
  TGI: 0.156 µM
A498 renal
  TGI: 0.129 µM
PC-3 prostate
  GI50: 0.115 µM
  TGI: 4.66 µM
LOX IMVI melanoma
  TGI: 0.0238 µM
NCI-H460 NSCLC
  TGI: 0.0156 µM
HCC-2998 colon
  TGI: 0.0754 µM

## CC(C)(O)c1coc(S(=O)(=O)/N=C(\O)Nc2c3c(cc4c2CCC4)CCC3)c1
SK-MEL-5 melanoma
  GI50: > 100 µM
  TGI: > 100 µM
SF-295 CNS
  GI50: > 100 µM
  TGI: > 100 µM
UACC-257 melanoma
  GI50: > 100 µM
  TGI: > 100 µM
SR leukemia
  GI50: > 100 µM
  TGI: > 100 µM
HL-60(TB) leukemia
  GI50: > 100 µM
  TGI: > 100 µM
RPMI-8226 leukemia
  GI50: > 100 µM
  TGI: > 100 µM
MOLT-4 leukemia
  GI50: > 100 µM
  TGI: > 100 µM
SNB-19 CNS
  GI50: > 100 µM
  TGI: > 100 µM
NCI-H23 lung
  GI50: > 100 µM
  TGI: > 100 µM
SW-620 colon
  GI50: > 100 µM
  TGI: > 100 µM
NCI-H226 lung
  GI50: > 100 µM
  TGI: > 100 µM
HS 578T breast
  GI50: > 100 µM
  TGI: > 100 µM
786-0 renal
  GI50: > 100 µM
  TGI: > 100 µM
SF-539 CNS
  GI50: > 100 µM
  TGI: > 100 µM
EKVX NSCLC
  GI50: > 100 µM
  TGI: > 100 µM
OVCAR-3 ovarian
  GI50: > 100 µM
  TGI: > 100 µM
MDA-MB-468 breast
  GI50: > 100 µM
  TGI: > 100 µM
DU-145 prostate
  GI50: > 100 µM
  TGI: > 100 µM
UACC-62 melanoma
  GI50: > 100 µM
  TGI: > 100 µM
HOP-92 NSCLC
  GI50: > 100 µM
  TGI: > 100 µM
SF-268 CNS
  GI50: > 100 µM
  TGI: > 100 µM
NCI-H522 lung
  GI50: > 100 µM
  TGI: > 100 µM
TK-10 renal
  GI50: > 100 µM
  TGI: > 100 µM
BT-549 breast
  GI50: > 100 µM
  TGI: > 100 µM
NCI/ADR-RES ovarian
  GI50: > 100 µM
  TGI: > 100 µM
SK-OV-3 ovarian
  GI50: > 100 µM
  TGI: > 100 µM
T-47D breast
  GI50: > 100 µM
  TGI: > 100 µM
ACHN renal
  GI50: > 100 µM
  TGI: > 100 µM
K-562 leukemia
  GI50: > 100 µM
  TGI: > 100 µM
CCRF-CEM leukemia
  GI50: > 100 µM
  TGI: > 100 µM
COLO 205 colon
  GI50: > 100 µM
  TGI: > 100 µM
RXF 393 renal
  GI50: > 100 µM
  TGI: > 100 µM
IGROV1 ovarian
  GI50: > 100 µM
  TGI: > 100 µM
UO-31 renal
  GI50: > 100 µM
  TGI: > 100 µM
OVCAR-8 ovarian
  GI50: > 100 µM
  TGI: > 100 µM
MALME-3M melanoma
  GI50: > 100 µM
  TGI: > 100 µM
HT29 colon
  GI50: > 100 µM
  TGI: > 100 µM
A549 NSCLC
  GI50: > 100 µM
  TGI: > 100 µM
M14 melanoma
  GI50: > 100 µM
  TGI: > 100 µM
MDA-MB-435 melanoma
  GI50: > 100 µM
  TGI: > 100 µM
SNB-75 CNS
  GI50: > 100 µM
  TGI: > 100 µM
CAKI-1 renal
  GI50: > 100 µM
  TGI: > 100 µM
NCI-H322M lung
  GI50: > 100 µM
  TGI: > 100 µM
OVCAR-5 ovarian
  GI50: > 100 µM
  TGI: > 100 µM
SN12C renal
  GI50: > 100 µM
  TGI: > 100 µM
MCF7 breast
  GI50: > 100 µM
  TGI: > 100 µM
OVCAR-4 ovarian
  GI50: > 100 µM
  TGI: > 100 µM
HCT-15 colon
  GI50: > 100 µM
  TGI: > 100 µM
MDA-MB-231 breast
  GI50: > 100 µM
  TGI: > 100 µM
HOP-62 NSCLC
  GI50: > 100 µM
  TGI: > 100 µM
KM12 colon
  GI50: > 100 µM
  TGI: > 100 µM
SK-MEL-28 melanoma
  GI50: > 100 µM
  TGI: > 100 µM
A498 renal
  GI50: > 100 µM
  TGI: > 100 µM
PC-3 prostate
  GI50: > 100 µM
  TGI: > 100 µM
LOX IMVI melanoma
  GI50: > 100 µM
  TGI: > 100 µM
NCI-H460 NSCLC
  GI50: > 100 µM
  TGI: > 100 µM
HCC-2998 colon
  GI50: > 100 µM
  TGI: > 100 µM
